Results from US9980943B2, “Methods of treating muscular dystrophy” (BOARD OF REGENTS OF THE NEVADA SYSTEM OF HIGHER EDUCATION, …, priority 2013, dated 2018).

Experiments:
Format in all cases: cell-based, mouse
[1] = system: α7 integrin (LacZ reporter in α7βgal+/− myoblasts); assay: Myoblast α7+/LacZ integrin FDG assay (Burkin assay in myoblasts, 96-well); conditions: α7+/LacZ myoblasts, 96-well; for fold induction at 0.5 µM / fold induction at 1 µM / fold induction at 5 µM / fold induction at 10 µM / fold induction at 20 µM / fold induction at 40 µM: Mus musculus, Myoblast, 48 h, read-out: Burkin Assay in Myoblasts, value relative to DMSO
[2] = system: α7 integrin (LacZ reporter in α7+/LacZ myotubes); assay: Myotube α7 integrin FDG assay (Burkin assay in myotubes, 96-well); conditions: myotubes; for fold induction at 0.5 µM / fold induction at 1 µM / fold induction at 5 µM / fold induction at 10 µM / fold induction at 20 µM / fold induction at 40 µM: Mus musculus, Myotube, read-out: Burkin Assay in Myotubes (signal relative to DMSO)
[3] = system: β-galactosidase in CMV-LacZ C2C12 myotubes; assay: CMV-LacZ secondary screen in C2C12 myotubes (β-Gal stabilizing assay); conditions: for CMV-LACZ in Myotubes (β-galactosidase activity relative to DMSO): CMV-LacZ C2C12 myotubes, 96-well format; for CMV-LACZ in Myotubes, signal relative to DMSO: C2C12 CMV-LacZ myotubes, fold relative to DMSO
Outline: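 β-Gal level was the read-out, measured in a clonal C2C12 line expressing LacZ from a CMV promoter. Dose-response curves used six concentrations, 0.5 μM up to 40 μM, with duplicate points.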

Compound | Burkin Assay in Myoblasts, value relative to DMSO ([1]; 0.5 uM) | Burkin Assay in Myoblasts, value relative to DMSO ([1]; 1 uM) | Burkin Assay in Myoblasts, value relative to DMSO ([1]; 5 uM) | Burkin Assay in Myoblasts, value relative to DMSO ([1]; 10 uM) | Burkin Assay in Myoblasts, value relative to DMSO ([1]; 20 uM) | Burkin Assay in Myoblasts, value relative to DMSO ([1]; 40 uM) | Burkin Assay in Myotubes (signal relative to DMSO) ([2]; 0.5 uM) | Burkin Assay in Myotubes (signal relative to DMSO) ([2]; 1 uM) | Burkin Assay in Myotubes (signal relative to DMSO) ([2]; 5 uM) | Burkin Assay in Myotubes (signal relative to DMSO) ([2]; 10 uM) | Burkin Assay in Myotubes (signal relative to DMSO) ([2]; 20 uM) | Burkin Assay in Myotubes (signal relative to DMSO) ([2]; 40 uM) | CMV-LACZ in Myotubes (β-galactosidase activity relative to DMSO) ([3]; 5 uM) | CMV-LACZ in Myotubes (β-galactosidase activity relative to DMSO) ([3]; 10 uM) | CMV-LACZ in Myotubes (β-galactosidase activity relative to DMSO) ([3]; 20 uM) | CMV-LACZ in Myotubes (β-galactosidase activity relative to DMSO) ([3]; 40 uM) | CMV-LACZ in Myotubes, signal relative to DMSO ([3]; 5 uM) | CMV-LACZ in Myotubes, signal relative to DMSO ([3]; 10 uM) | CMV-LACZ in Myotubes, signal relative to DMSO ([3]; 20 uM) | CMV-LACZ in Myotubes, signal relative to DMSO ([3]; 40 uM) | further results
COc1ccc(-n2c(SCC(=O)Nc3cccc(C(=O)O)c3)nnc2-c2ccco2)cc1 [MLS001215742-01] | 0.887 | 0.926 | 1.04 | 1.105 | 0.7682 | 0.8165 | 1.02 | 1.104 | 0.9803 | 1.155 | 0.8384 | 0.9687 | 1.026 | 1.1034 | 0.9254 | 0.9851 | – | – | – | – | –
O=C(O)c1cc(N=Cc2c(O)c3ccccc3oc2=O)ccc1O [MLS001216260-01] | – | – | – | – | – | – | – | – | – | – | – | – | – | – | – | – | 0.8516 | 1.031 | 1.09 | 0.8367 | Burkin Assay in Myoblasts, signal relative to DMSO ([1]; 0.5 uM): 1.0145; Burkin Assay in Myoblasts, signal relative to DMSO ([1]; 1 uM): 0.984; Burkin Assay in Myoblasts, signal relative to DMSO ([1]; 5 uM): 0.8531; Burkin Assay in Myoblasts, signal relative to DMSO ([1]; 10 uM): 0.8798; Burkin Assay in Myoblasts, signal relative to DMSO ([1]; 20 uM): 0.8781; Burkin Assay in Myoblasts, signal relative to DMSO ([1]; 40 uM): 0.8933; Burkin Assay in Myotubes, α7 integrin LacZ reporter signal relative to DMSO ([2]; 0.5 uM): 1.005; Burkin Assay in Myotubes, α7 integrin LacZ reporter signal relative to DMSO ([2]; 1 uM): 0.9893; Burkin Assay in Myotubes, α7 integrin LacZ reporter signal relative to DMSO ([2]; 5 uM): 1.16; Burkin Assay in Myotubes, α7 integrin LacZ reporter signal relative to DMSO ([2]; 10 uM): 1.06; Burkin Assay in Myotubes, α7 integrin LacZ reporter signal relative to DMSO ([2]; 20 uM): 0.9144; Burkin Assay in Myotubes, α7 integrin LacZ reporter signal relative to DMSO ([2]; 40 uM): 0.9348
COc1cc(CNCc2ccc(C(=O)O)cc2)ccc1OCc1ccc(F)cc1.Cl [MLS001216405-01] | 1.132 | 0.9785 | 0.9945 | 0.9208 | 0.9202 | 0.7667 | 1.128 | 0.9927 | 1.124 | 0.9642 | 0.9387 | 0.8706 | – | – | – | – | 0.9192 | 0.8008 | 1.345 | 1.08 | –
CCc1ccc(N(C(=O)c2snc(C(N)=O)c2N)C(C(=O)NC2CCCC2)c2ccco2)cc1 (stereo not drawn) [MLS001216714-01] | – | – | – | – | – | – | – | – | – | – | – | – | 0.9162 | 0.98 | 1.417 | 3.633 | – | – | – | – | fold induction at 0.5 µM ([1]; 0.5 uM): 1.02; fold induction at 1 µM ([1]; 1 uM): 0.971; fold induction at 5 µM ([1]; 5 uM): 1.04; fold induction at 10 µM ([1]; 10 uM): 1.14; fold induction at 20 µM ([1]; 20 uM): 1.09; fold induction at 40 µM ([1]; 40 uM): 0.274; fold induction at 0.5 µM ([2]; 0.5 uM): 1.03; fold induction at 1 µM ([2]; 1 uM): 1.17; fold induction at 5 µM ([2]; 5 uM): 1.1; fold induction at 10 µM ([2]; 10 uM): 1.32; fold induction at 20 µM ([2]; 20 uM): 0.706; fold induction at 40 µM ([2]; 40 uM): 0.677
Cc1nnc(NC(=O)CSc2nnc(CCNC(=O)c3ccccc3F)n2C)s1 [MLS001217045-01] | 0.881 | 0.9697 | 1.087 | 1.112 | 1.057 | 1.109 | 1.001 | 1.156 | 0.94 | 1.154 | 1.115 | 1.051 | 0.9613 | 0.9821 | 0.9272 | 0.9127 | – | – | – | – | –
O=c1[nH]c(C2CCCN(S(=O)(=O)c3ccccc3)C2)nc2c1nnn2Cc1cccc(Cl)c1 (stereo not drawn) [MLS001217286-01] | 0.7428 | 0.8506 | 0.7671 | 0.8273 | 1.006 | 1.068 | 0.7617 | 0.9911 | 1.193 | 1.219 | 1.095 | 0.5964 | 0.9599 | 1.227 | 0.3991 | 0.3604 | – | – | – | – | –
CC1CCN(S(=O)(=O)c2ccc(S(=O)(=O)N3CCCC3)cc2)CC1 [MLS001217673-01] | – | – | – | – | – | – | – | – | – | – | – | – | – | – | – | – | 0.936 | 0.9409 | 1.161 | 0.9352 | Burkin Assay in Myoblasts, signal relative to DMSO ([1]; 0.5 uM): 0.8494; Burkin Assay in Myoblasts, signal relative to DMSO ([1]; 1 uM): 0.8343; Burkin Assay in Myoblasts, signal relative to DMSO ([1]; 5 uM): 0.9353; Burkin Assay in Myoblasts, signal relative to DMSO ([1]; 10 uM): 0.9256; Burkin Assay in Myoblasts, signal relative to DMSO ([1]; 20 uM): 0.8325; Burkin Assay in Myoblasts, signal relative to DMSO ([1]; 40 uM): 0.8079; Burkin Assay in Myotubes, α7 integrin LacZ reporter signal relative to DMSO ([2]; 0.5 uM): 0.8894; Burkin Assay in Myotubes, α7 integrin LacZ reporter signal relative to DMSO ([2]; 1 uM): 0.749; Burkin Assay in Myotubes, α7 integrin LacZ reporter signal relative to DMSO ([2]; 5 uM): 0.9699; Burkin Assay in Myotubes, α7 integrin LacZ reporter signal relative to DMSO ([2]; 10 uM): 0.9516; Burkin Assay in Myotubes, α7 integrin LacZ reporter signal relative to DMSO ([2]; 20 uM): 1.095; Burkin Assay in Myotubes, α7 integrin LacZ reporter signal relative to DMSO ([2]; 40 uM): 1.078
CCCCNC(=O)CN(C(=O)c1snc(C(=O)NC2CCCCC2)c1N)c1ccc(OC)cc1OC [MLS001217697-01] | – | – | – | – | – | – | – | – | – | – | – | – | 1.2 | 0.8647 | 0.764 | 0.7395 | – | – | – | – | fold induction at 0.5 µM ([1]; 0.5 uM): 1.09; fold induction at 1 µM ([1]; 1 uM): 1.12; fold induction at 5 µM ([1]; 5 uM): 1.18; fold induction at 10 µM ([1]; 10 uM): 1.16; fold induction at 20 µM ([1]; 20 uM): 0.883; fold induction at 40 µM ([1]; 40 uM): 1.01; fold induction at 0.5 µM ([2]; 0.5 uM): 1.2; fold induction at 1 µM ([2]; 1 uM): 0.968; fold induction at 5 µM ([2]; 5 uM): 1.16; fold induction at 10 µM ([2]; 10 uM): 1.2; fold induction at 20 µM ([2]; 20 uM): 1.12; fold induction at 40 µM ([2]; 40 uM): 1.12
COc1cc(C(C(=O)NC2CCCCC2)N(C(=O)c2snc(C(N)=O)c2N)c2ccc(C)cc2)ccc1O (stereo not drawn) [MLS001218427-01] | – | – | – | – | – | – | – | – | – | – | – | – | – | – | – | – | 1.209 | 15.1793 | 34.571 | 0.6965 | Burkin Assay in Myoblasts, signal relative to DMSO ([1]; 0.5 uM): 0.9466; Burkin Assay in Myoblasts, signal relative to DMSO ([1]; 1 uM): 0.9485; Burkin Assay in Myoblasts, signal relative to DMSO ([1]; 5 uM): 0.8334; Burkin Assay in Myoblasts, signal relative to DMSO ([1]; 10 uM): 0.7663; Burkin Assay in Myoblasts, signal relative to DMSO ([1]; 20 uM): 0.2232; Burkin Assay in Myoblasts, signal relative to DMSO ([1]; 40 uM): 0.3039; Burkin Assay in Myotubes, α7 integrin LacZ reporter signal relative to DMSO ([2]; 0.5 uM): 0.8052; Burkin Assay in Myotubes, α7 integrin LacZ reporter signal relative to DMSO ([2]; 1 uM): 0.7974; Burkin Assay in Myotubes, α7 integrin LacZ reporter signal relative to DMSO ([2]; 5 uM): 0.8464; Burkin Assay in Myotubes, α7 integrin LacZ reporter signal relative to DMSO ([2]; 10 uM): 0.6054; Burkin Assay in Myotubes, α7 integrin LacZ reporter signal relative to DMSO ([2]; 20 uM): 0.3311; Burkin Assay in Myotubes, α7 integrin LacZ reporter signal relative to DMSO ([2]; 40 uM): 0.429
